Assays:
[1] = system: NB16 cells; assay: U-13C-glutamine isotope tracing (LC/MS); type: cell-based
Description: (§1) Metabolic analysis. For the metabolomics and isotope tracing analysis in vitro, cells were washed with cold PBS, lysed in 80% Ultra LC-MS acetonitrile on ice for 15 minutes, centrifuged at 20,000 g for 10 minutes at 4° C., and supernatant was subjected to mass spectrometry analysis. For the metabolomics analysis in vivo, 10-20 mg tissue were cut off on ice, rinsed if necessary to remove blood, and place in a 2 ml round-bottom cryovial. The tissues were homogenized by 3 times 10 s on/off bursts homogenization in 1 ml 80% methanol on dry ice. Transfer the homogenate to an Eppendorf tube and keep on liquid nitrogen while processing the remaining samples. Incubated all the samples in −80° C. for 30 minutes. After incubation, vortexed the samples for 5 seconds. Then centrifuged the samples at 20,000 g for 10 minutes at 4° C., and supernatant was subjected to mass spectrometry analysis. Resuspend the remaining cellular pellet in 100 ul protein lysis buffer and determine the protein concentration. Then calculate the total protein content per sample.
(§2) Liquid chromatography was performed using an Agilent 1290 Infinity LC system (Agilent, Santa Clara, US) coupled to a Q-TOF 6545 mass spectrometer (Agilent, Santa Clara, US). A hydrophilic interaction chromatography method (HILIC) with a BEH amide column (100×2.1 mm i.d., 1.7 μm; Waters) was used for compound separation at 35° C. with a flow rate of 0.3 ml/minutes. The mobile phase A consisted of 25 mM ammonium acetate and 25 mM ammonium hydroxide in water and mobile phase B was acetonitrile. The gradient elution was 0-1 minute, 85% B; 1-12 minutes, 85% B→65% B; 12-12.2 minutes, 65% B→40% B; 12.2-15 minutes, 40% B. After the gradient, the column was re-equilibrated at 85% B for 5 minutes. The overall runtime was 20 minutes, and the injection volume was 5 μL. Agilent Q-TOF was operated in negative mode and the relevant parameters were as listed: ion spray voltage, 3500 V; nozzle voltage, 1000 V; fragmentor voltage, 125 V; drying gas flow, 11 L/minutes; capillary temperature, 325° C., drying gas temperature, 350° C.; and nebulizer pressure, 40 psi. A full scan range was set at 50 to 1600 (m/z). The reference mass was 119.0363 and 980.0164. The acquisition rate was 2 spectra/s. Targeted analysis, isotopologues extraction and natural isotope abundance correction were performed by Agilent Profinder B.10.00 (Agilent Technologies).
(§3) Stable isotope tracing analysis. […] Then the culture medium was changed to DMEM/F-12, no glutamine (Gibco, 21331020) with 4 mM U-^13C5-glutamine (Cambridge Isotope Laboratories, CLM-1822-H) and 10% dialyzed FBS (Gibco, 26400044) under same treatment condition as above for 2 h. […] Then changed the medium to DMEM/F-12, no glutamine (Gibco, 21331020) with 4 mM 1-^13C-glutamine (Cambridge Isotope Laboratories, CLM-CLM-3612-PK) and 10% dialyzed FBS (Gibco, 26400044) for 2 h with same treatment under normoxia or hypoxia for 2 h.

[2] = system: SK-N-BE(2) cells; assay: U-13C-glutamine isotope tracing (LC/MS); type: cell-based
Description: as §1, §2, §3

[3] = system: SK-N-BE(2) cells; assay: RNA-seq gene expression profiling with GSEA/DAVID analysis and qPCR validation; type: cell-based
Description: RNA isolation, reverse transcription, and real-time PCR. The procedure was performed as described before. Briefly, total RNA was isolated from 60 mm tissue culture plates according to the TRIzol Reagent (Invitrogen, 15596026) protocol. 3 μg of total RNA was used in the reverse transcription reaction using the iScript cDNA synthesis kit (Bio-Rad). Quantitative PCR amplification was performed on the Prism 7900 Sequence Detection System (Applied Biosystems) using Taqman Gene Expression Assays (Applied Biosystems). Gene expression level were normalized to 18S rRNA.
RNA Sequencing and bioinformatics analysis. […] The RNA-seq library was constructed and subjected to 150 bp paired-end sequencing on an Illumina sequencing platform (Novogene). RNA-seq analysis was performed using the kallisto and sleuth analytical pipeline. In brief, a transcript index was generated with reference to Ensembl version 67 for hg19. Paired-end mRNA-seq reads were pseudo-aligned using kallisto (v0.42.4) with respect to this transcript index using 100 bootstraps (-b 100) to estimate the variance of estimated transcript abundances. Transcript-level estimates were aggregated to transcripts per million (TPM) estimates for each gene, with gene names assigned from Ensembl using biomaRt. Differential gene expression analysis was performed using the sleuth R package across pairwise groups using Wald tests, with significant hits called with a sleuth q-value<0.05 and log 2(fold change) >0.693 or <−0.693. […] All the annotated transcripts (˜21,427 features in total) with expression values were uploaded to a locally-installed GSEA tool (version 4.1.0) and compared against the H: hallmark gene sets (50 gene sets).
To generate the favorable or unfavorable prognosis gene sets, Kaplan-Meier assay were employed for all the genes independently by using all 11 available neuroblastoma patient databases from R2.
For functional annotation, differentially expressed genes were submitted to online Database for Annotation, Visualization and Integrated Discovery (DAVID) website. The Analyses in DAVID were performed using the default parameters.

[4] = system: orthotopic neuroblastoma xenograft (SK-N-BE(2) cells); assay: H&E histology and immunohistochemistry of orthotopic tumors; type: in vivo, mice; settings: diet 2000 ppm NEN vs control
[5] = NB16, 1 μM NEN 3 h pretreatment then 2 h label
[6] = 1 μM NEN 3 h pretreatment then 2 h label
[7] = GSEA against gene sets from 11 neuroblastoma datasets of the R2 database
[8] = SK-N-BE(2), NEN 16 h, DAVID analysis
[9] = SK-N-BE(2), NEN 16 h, sleuth q-value<0.05, b>abs(ln(2))
[10] = SK-N-BE(2), RNA-seq, validated by RT-qPCR

Compound: O=C(Nc1ccc([N+](=O)[O-])cc1Cl)c1cc(Cl)ccc1O [NEN, 5-chloro-N-(2-chloro-4-nitrophenyl)-2-hydroxybenzamide compound with 2-aminoethanol (1:1)]
- m+4 aspartate [1, 5]: increased
- m+4 succinate [1, 5]: increased
- m+5 2-HG labelling [1, 5]: no significant reduction
- m+5 and m+3 labeling of α-KG from glutamine [1, 5]: increased
- reductive carboxylation flux (labelling fraction of m+5 citrate, m+3 fumarate, m+3 malate) ([1]; NB16, U-13C-glutamine, 1 μM NEN, normoxia): significantly inhibited
- labelling abundance of m+2 (2nd cycle) and m+½ (3rd cycle) aspartate [2, 6]: significantly increased
- labelling abundance of m+2 (2nd cycle) and m+½ (3rd cycle) succinate [2, 6]: significantly increased
- labelling percentage of m+3 (2nd cycle) α-KG [2, 6]: significantly increased
- labelling percentage of m+½ (3rd cycle) α-KG [2, 6]: significantly increased
- m+5 labelling abundance of 2-HG [2, 6]: significantly decreased
- m+5 α-KG labelling from U-13C-glutamine [2, 6]: no significant increase
- reductive carboxylation flux (labelling fraction of m+5 citrate, m+3 fumarate, m+3 malate) ([2]; U-13C-glutamine, 1 μM NEN, normoxia): significantly inhibited
- enrichment of NEN-downregulated genes in patient prognosis gene sets [3, 7]: enriched in unfavorable prognosis gene sets
- enrichment of NEN-upregulated genes in patient prognosis gene sets [3, 7]: enriched in all the favorable prognosis gene sets except one
- genes expression in RAR signaling induced by RA ([3]; SK-N-BE(2), 1 μM NEN + 1 μM 13-cis-RA 16 hrs, validated by qRT-PCR): significantly enhanced
- p53 pathway gene expression (GSEA) ([3]; SK-N-BE(2), NEN 16 h): significantly increased
- pathways enriched in NEN-downregulated genes [3, 8]: DNA replication and cell cycle progression
- pathways enriched in upregulated genes [3, 8]: neurogenesis, nervous system development and neuron differentiation
- number of genes downregulated [3, 9]: 224
- number of genes significantly upregulated [3, 9]: 495
- cell division-related genes (GSEA hallmarks E2F-TARGETS, G2M_CHECKPOINT) ([3]; SK-N-BE(2), NEN 16 h vs CTRL): downregulation
- expression of N-Myc targeted genes (GSEA MYC_TARGETS_V1, V2) ([3]; SK-N-BE(2), NEN 16 h vs CTRL): reduced
- expression of canonical Wnt/β-catenin target genes [3, 10]: reduced
- gene expression of inhibitor of Wnt/β-catenin pathway including TP53 [3, 10]: upregulated
- N-Myc protein expression in xenografts (IHC) [4]: significantly reduced
- enlarged prominent nucleoli in tumor cells (H&E) [4]: much fewer
- β-catenin protein expression in xenografts (IHC) [4]: significantly reduced

Reference: patent US11918550B2, “Sensitization of cancer cells to differentiation therapy with mitochondrial uncoupler niclosamide ethanolamine” (The Board of Trustees of the Leland Stanford Junior …, priority 2020, dated 2024)
